Values of other authors in patent publication US9603775B2, “Delamination resistant pharmaceutical glass containers containing active pharmaceutical ingredients” (Corning Incorporated, priority 2013, dated 2017).

Assays:
[1] = tested on: 26S proteasome
[2] = tested on: IL-12 and IL-23 mediated signaling and cytokine cascades; details: in vitro models

Row | Molecule | effect on antigen presentation [1] | effect on IL-12 and IL-23 mediated signaling and cytokine cascades [2]
1 | CC(C)C[C@H](NC(=O)[C@H](Cc1ccccc1)NC(=O)c1cnccn1)B(O)O [bortezomib, [(1R)-3-methyl-1-[[(2S)-1-oxo-3-phenyl-2-[(pyrazinylcarbonyl)amino]propyl]amino]butyl]boronic acid] | inhibited in a dose dependent manner | 
2 | ustekinumab: human IgG1κ monoclonal antibody that binds the p40 subunit of IL-12 and IL-23 cytokines |  | disrupt IL-12 and IL-23 mediated signaling and cytokine cascades
